According to paper PMC4591937 (Science translational medicine, 2015):
Values after ≈ are worked out from the molar mass of the structure shown.

What was measured:
[1] = system: lipid peroxidation; assay: Inhibition of lipid peroxidation, ferric thiocyanate; assay type: biochemical; settings: average ± SEM, n = 3
[2] = system: lipid peroxidation; assay: Inhibition of lipid peroxidation, thiobarbituric acid reactive substances; assay type: biochemical; settings: average ± SEM, n = 3
[3] = Binding to human plasma proteins by rapid equilibrium dialysis; assay type: in vitro ADME
[4] = system: ERE-luciferase reporter under transcriptional control of ERs; assay: Bioluminescence imaging in OVX repTOP ERE-Luc mice; assay type: in vivo, mouse; settings: DHED s.c. or p.o. ≥200 μg/kg; E2 s.c. 20 μg/kg
[5] = system: uterus of OVX rodents; assay type: in vivo; settings: for Vaginal smear cytology during and after treatment: OVX rats
[6] = system: ERα in MCF-7Ca cells; assay: ERα transactivation in MCF-7Ca breast cancer cells; assay type: cell-based, human; settings: cultured MCF-7Ca cells, 1 nM
[7] = target: T1, ERα (Homo sapiens, UniProt P03372); assay: Estrogen receptor; assay type: binding
T1 sequence (P03372 1-595): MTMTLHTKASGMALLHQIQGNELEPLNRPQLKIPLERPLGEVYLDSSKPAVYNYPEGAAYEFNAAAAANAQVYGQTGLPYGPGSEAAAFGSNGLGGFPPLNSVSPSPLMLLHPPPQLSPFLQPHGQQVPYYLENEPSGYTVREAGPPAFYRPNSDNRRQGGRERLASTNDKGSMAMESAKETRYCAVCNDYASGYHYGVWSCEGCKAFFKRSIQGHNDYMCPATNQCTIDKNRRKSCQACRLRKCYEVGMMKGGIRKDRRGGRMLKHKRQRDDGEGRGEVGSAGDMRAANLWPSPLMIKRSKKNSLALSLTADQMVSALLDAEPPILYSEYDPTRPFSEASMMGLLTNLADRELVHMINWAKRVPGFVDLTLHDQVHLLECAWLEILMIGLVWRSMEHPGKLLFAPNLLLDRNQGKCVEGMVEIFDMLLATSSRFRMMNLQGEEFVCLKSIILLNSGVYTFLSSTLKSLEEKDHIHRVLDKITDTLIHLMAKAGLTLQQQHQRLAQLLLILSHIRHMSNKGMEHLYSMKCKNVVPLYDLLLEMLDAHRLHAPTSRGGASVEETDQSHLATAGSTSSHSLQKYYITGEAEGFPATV

[8] = target: ERβ (Homo sapiens, UniProt Q92731); assay: Estrogen receptor; assay type: binding
[9] = Drug distribution / pharmacokinetics in OVX rats; assay type: in vivo, rat
[10] = system: OVX Sprague-Dawley rats; assay: Transient middle cerebral artery occlusion; assay type: in vivo, rat
[11] = system: CD1 mice; assay: Forced swim test; assay type: in vivo, mouse
[12] = system: OVX rat; assay: OVX rat hot flush model; assay type: in vivo; settings: p.o. 30 μg/kg
[13] = system: middle-aged OVX Fisher-344 rats; assay: Delay match-to-sample plus maze test; assay type: in vivo, rat; settings: continuous s.c. minipump 4 μg daily, 48 days, versus control
[14] = system: OVX rat brain; assay: Markers of estrogenic effects in the brain; assay type: in vivo; settings: for Progesterone receptor (PR) expression in the preoptic area of the hypothalamus: OVX Sprague-Dawley rats, DHED s.c. 50 μg/kg, ICI 182,780 s.c. 1 mg/kg 1 h before DHED
[15] = system: human MCF7-Ca xenografts; assay: MCF-7Ca xenograft growth in nude mice; assay type: in vivo, mouse; settings: 100 μg/kg s.c. daily for 8 weeks
[16] = physchem
[17] = 0.8 to 100 μg/kg s.c. 1 h before tMCAO

Sequence of ERβ (Q92731 whole entry, species assumed): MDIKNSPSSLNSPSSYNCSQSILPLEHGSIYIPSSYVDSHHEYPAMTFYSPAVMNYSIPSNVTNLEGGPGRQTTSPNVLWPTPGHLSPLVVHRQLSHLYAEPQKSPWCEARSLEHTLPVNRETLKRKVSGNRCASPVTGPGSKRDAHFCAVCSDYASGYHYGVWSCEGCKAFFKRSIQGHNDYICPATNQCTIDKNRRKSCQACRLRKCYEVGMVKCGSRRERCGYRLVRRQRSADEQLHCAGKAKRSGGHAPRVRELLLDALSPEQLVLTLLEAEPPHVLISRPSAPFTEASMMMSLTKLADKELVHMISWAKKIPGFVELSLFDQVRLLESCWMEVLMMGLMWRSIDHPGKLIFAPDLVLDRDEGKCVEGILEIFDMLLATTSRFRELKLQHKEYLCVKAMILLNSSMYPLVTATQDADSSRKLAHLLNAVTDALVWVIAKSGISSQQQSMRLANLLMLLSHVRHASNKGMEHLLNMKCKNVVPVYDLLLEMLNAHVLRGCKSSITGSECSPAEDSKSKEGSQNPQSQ

## C[C@]12CC[C@@H]3c4ccc(O)cc4CC[C@H]3[C@@H]1CC[C@@H]2O [Compound E2, 17β-estradiol, reference compound]
[1]; read-out: Inhibition of lipid peroxidation: IC50, FTC
  IC50: 11.8 ± 1.6 µM
[2]; read-out: Inhibition of lipid peroxidation: IC50, TBARS
  IC50: 3.9 ± 0.4 µM
[3]; average ± SEM, n = 3
  Binding to human plasma proteins: 97.8 ± 0.3%
[4]
  ERE reporter activation / bioluminescence in peripheral tissues: significant increase of photon emission from the hepatic area
[5]
  Vaginal smear cytology during and after treatment: vaginal smears with many cornified cells
[6]
  ERα transactivation: induced the expected cancer-promoting ERα transactivation

## C[C@]12CCC(=O)C=C1CC[C@@H]1[C@@H]2CC[C@]2(C)C(=O)CC[C@@H]12 [Δ^4A, Δ^4-androstenedione]
[6]
  ERα transactivation: induced the expected cancer-promoting ERα transactivation

## C[C@]12CC[C@H]3[C@@H](CCC4=CC(=O)C=C[C@@]43O)[C@@H]1CC[C@@H]2O [DHED, 10β,17β-dihydroxyestra-1,4-dien-3-one]
[7]
  IC50: > 10 µM
[8]
  IC50: > 10 µM
[1]
  Inhibition of lipid peroxidation: IC50, FTC: n.i.
[2]
  Inhibition of lipid peroxidation: IC50, TBARS: n.i.
[3]; human
  Binding to human plasma proteins: 58.0 ± 0.6%
[9]; OVX rats after systemic dosing
  Prodrug level in the brain: did not detect DHED in the brain
[9]; PK studies of E2 in brain and serum, p.o. (table S1)
  Oral absorption: complete absorption after oral administration
[9]; female, Sprague-Dawley, rat, serum, iv, 200 ug/kg
  half-life: 5.1 ± 0.6 min
[4]
  ERE reporter activation / bioluminescence in peripheral tissues: did not activate the ERE reporter construct
[10]; 100 μg/kg s.c. after tMCAO
  Neuroprotection with post-infarct treatment: had a neuroprotective effect
[10]; [17]
  Infarct volume: dose-dependent reduction of the infarct volumes
  Neurological deficits (ND score): attenuation of neurological deficits
[11]; 10 μg/kg s.c. daily for 5 days, 1 h after last injection
  Antidepressant-like activity in the FST: outperformed direct administration of E2
[12]
  Tail-skin temperature rise: blunted the tail-skin temperature rise
[13]
  Working memory errors: significantly decreased working memory errors
[14]; OVX Fischer 344 rats, 4 μg/day s.c. pumps, 48 days
  ChAT-IR stereological cell counts in medial septum and vertical diagonal band: increased choline acetyltransferase immunoreactive (ChAT-IR) stereological cell counts
[14]; OVX Fischer 344 rats, 10 μg s.c. every four days for 40 days
  Dendritic spines and spine heads in hippocampal CA1 neurons: increased the number of dendritic spines and spine heads
[14]
  Progesterone receptor (PR) expression in the preoptic area of the hypothalamus: stimulated progesterone receptor (PR) expression
[5]; OVX Swiss-Webster mice, 50 μg/kg s.c. daily for 5 days, versus control
  Expression of estrogen-regulated uterine proteins: no changes in the expression
[5]
  Vaginal smear cytology during and after treatment: remained continuously in diestrus
[5]; OVX rodents, i.v., s.c., p.o. or 48-day s.c. minipump
  Wet uterus weight gain (uterotrophic effect): did not result in wet uterus weight gain
[15]
  Growth of aromatase-transfected MCF-7Ca xenografts: did not stimulate the growth
[16]
  solubility: 60.3 ± 1.7 µg/mL (≈ 209 µM)

## 16,16,17-d3-DHED
[9]; OVX Sprague-Dawley rats, i.v., tissue 15 min post-dosing
  Site of labelled E2 formation from deuterated prodrug: d3-E2 was produced exclusively in the brain

## C[C@]12CC[C@@H]3c4ccc(O)cc4C[C@@H](CCCCCCCCC[S+]([O-])CCCC(F)(F)C(F)(F)F)[C@H]3[C@@H]1CC[C@@H]2O (stereo partly shown) [ICI 182,780]
[11]; 4 mg/kg s.c. co-injected with E2 or DHED 50 μg/kg s.c., 5 days
  Effect of ER antagonist on antidepressant-like effect of E2 and DHED: completely blocked this antidepressant-like effect
[11]; 15 min after completion of the FST, systemic dosing
  Brain concentration by LC-MS/MS: 6.6 ±0.9 ng/g tissue
[14]
  Progesterone receptor (PR) expression in the preoptic area of the hypothalamus: abolished the effect of DHED treatment on PR induction
